Assay results as given in patent publication US7674457B2, “Methods for enhancing neuroprotection via administration of stem cells and blood brain barrier permeabilizers” (University of South Florida, priority 2003, dated 2010).

Experiments:
[1] = test system: GDNF, NGF, and BDNF; assay: Blood levels of trophic factors by ELISA at day 3 after stroke; type: in vivo, Sprague-Dawley rats; conditions: intravenous
Protocol: Finally, the blood levels of GDNF, NGF, and BDNF were measured to further determine the source of trophic factors. Additional stroke animals (n=6 per group) were subjected to the same surgical/drug regimen as above and were euthanized at day 3 after stroke.

[2] = test system: trophic factors; assay: Trophic factors in peripheral organs (kidneys, lungs, spleens) of stroke animals; type: in vivo, Sprague-Dawley rats; conditions: intravenous, lungs, and spleens

For `OC[C@@H](O)[C@@H](O)[C@H](O)[C@H](O)CO` [mannitol], the “trophic factors in circulating blood” value [1] was “no detectable levels” and the “elevation of trophic factors in peripheral organs, above controls” value [2] was 8%.
